Measured values: US5744121A (priority 1996, dated 1998)
Read-outs that look alike come from different tables or passages of the source. Values belong to the molecule of their own block, whether it stands above or below them.

Experiments:
5-HT1A receptor = experiment: Blocking studies: regional brain uptake ratios in rats; assay type: in vivo; conditions: pretreated rats, 30 min post iv injection of tracer
Protocol: In order to further characterize the in vivo brain uptake of 1a in rats, blocking studies were carried out to determine changes of the ratios of regional brain uptake. […] Ratios for each region were calculated based on the % dose/gram of each region divided by the same in CB. […] (HP: hippocampus; CB: cerebellum; HY: hypothalamus; CX: cortex; ST: striatum).

[1] = target: T1, 5-HT1A receptor (rat hippocampal homogenates) (Rattus norvegicus, UniProt P19327); experiment: Inhibition of [^125 I]-8-OH-PIPAT binding to rat hippocampal homogenates; conditions: ligand [^125 I]-8-OH-PIPAT
T1 construct: in rat hippocampal membrane preparations; from tissue; host or cells: rat hippocampus (membrane preparations / tissue homogenates)
T1 sequence (P19327 1-422): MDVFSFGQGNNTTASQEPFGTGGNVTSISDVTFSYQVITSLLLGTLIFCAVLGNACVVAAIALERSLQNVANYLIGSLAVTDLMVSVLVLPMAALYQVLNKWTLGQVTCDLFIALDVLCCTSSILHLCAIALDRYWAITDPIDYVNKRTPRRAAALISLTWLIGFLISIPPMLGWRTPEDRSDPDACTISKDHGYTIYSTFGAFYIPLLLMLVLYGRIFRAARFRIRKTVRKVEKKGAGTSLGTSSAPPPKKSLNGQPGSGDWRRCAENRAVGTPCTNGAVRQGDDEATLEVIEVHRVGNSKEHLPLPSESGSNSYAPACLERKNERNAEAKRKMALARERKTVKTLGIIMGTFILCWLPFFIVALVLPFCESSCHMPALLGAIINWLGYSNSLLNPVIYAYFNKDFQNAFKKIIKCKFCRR
From the text: The 5-HT1A binding affinity of p-, m-, o- MPPI, p-fluoro- and p-nitro-MPP derivatives (1a-f) in rat hippocampal membrane preparations with [^123 ]

[2] = target: T1, 5-HT1A receptor (rat hippocampal homogenates); experiment: Inhibition of [^125 I]-p-MPP binding to rat hippocampal homogenates
[3] = Regional brain distribution in rats after iv injection; assay type: in vivo, Male Sprague-Dawley rats; conditions: rat, iv, rats (Table IV); for tissue uptake at 0.05 h: 3 min; for tissue uptake at 1 h: 60 min; for tissue uptake at 2 h: 120 min
Protocol: While the rats were under ether anesthesia, 0.2 mL of a saline solution containing [^123 I]1a and 1b (8-10 μCi) was injected directly into the femoral vein, and rats were sacrificed at various time points postinjection by cardiac excision under ether anesthesia. The organs of interest were removed and weighed and the radioactivity was counted with a Packard garnma automatic counter (Model 5000). The percentage dose per organ was calculated by a comparison of the tissue counts to suitably diluted aliquots of the injected material. Total activities of blood and muscle were calculated under the assumption that they were 7% and 40% of the total body weight, respectively.
By dissecting, weighing and counting samples from different brain regions (cortex, striatum, hippocampus, hypothalamus and cerebellum), the percentage dose/gram of the sample was calculated by comparing the sample counts with the count of the diluted initial dose.

[4] = Biodistribution in rats after iv injection; assay type: in vivo, Male Sprague-Dawley rats; conditions: average of 3 rats ± SD
Protocol: Male Sprague-Dawley rats (225-300 g), allowed free access to food and water, were used for an in vivo biodistribution study. While the rats were under ether anesthesia, 0.2 mL of a saline solution containing [^123 I]1a and 1b (8-10 μCi) was injected directly into the femoral vein, and rats were sacrificed at various time points postinjection by cardiac excision under ether anesthesia. The organs of interest were removed and weighed and the radioactivity was counted with a Packard […] automatic counter (Model 5000). The percentage dose per organ was calculated by a comparison of the tissue counts to suitably diluted aliquots of the injected material.

[5] = ligand [^125 I]-p-MPP, rat hippocampal homogenates, read-out: Ki
[6] = cerebellum, read-out: Regional distribution, cerebellum
[7] = cortex, read-out: Regional distribution, cortex
[8] = hippocampus, read-out: Regional distribution, hippocampus
[9] = hypothalamus, read-out: Regional distribution, hypothalamus
[10] = striatum, read-out: Regional distribution, striatum

Structure (SMILES): CCCN(CCC)C1CCc2cccc(O)c2C1 (racemic) [(± 8-OH-DPAT), 8-hydroxy-2-(N,N-di-n-propyl)aminotetralin, reference compound]
- specific uptake of [^123 I] or [^125 I]1a in the hippocampus after pretreatment (5-HT1A receptor): mark decrease

- Ki [1]: 3.3 ± 0.8 nM
Structure (SMILES): COc1ccccc1N1CCN(CCN(C(=O)c2ccc(F)cc2)c2ccccn2)CC1 [Compound 1d]

- Ki [1]: 6.08 ± 0.8 nM
Structure (SMILES): COc1ccccc1N1CCN(CCN(C(=O)c2ccc(I)cc2)c2ncccn2)CC1 [Compound 1g, 4(2'-methoxy)phenyl-1-[2'-(N-2"-pyrimidinyl)-p-iodobenzamido] ethy piperazine]

Structure (SMILES): COc1cccc(OC)c1OCCNCC1COc2ccccc2O1 (stereo not drawn) [WB 4101]
- Ki [2, 5]: 5 ± 0.5 nM

- tissue uptake at 2 min [3, 6]: 0.47 ± 0.01 %ID/g
- tissue uptake at 0.05 h [3, 6]: 0.039 ± 0.003 %ID/g
- tissue uptake at 1 h [3, 6]: 0.014 ± 0.004 %ID/g
- tissue uptake at 2 h [3, 6]: 0.008 ± 0.0004 %ID/g
- tissue uptake at 2 min [3, 7]: 0.5 ± 0.03 %ID/g
- tissue uptake at 0.05 h [3, 7]: 0.043 ± 0.002 %ID/g
- tissue uptake at 1 h [3, 7]: 0.015 ± 0.005 %ID/g
- tissue uptake at 2 h [3, 7]: 0.008 ± 0.0008 %ID/g
- tissue uptake at 2 min [3, 8]: 0.54 ± 0.03 %ID/g
- tissue uptake at 0.05 h [3, 8]: 0.051 ± 0.005 %ID/g
- tissue uptake at 1 h [3, 8]: 0.013 ± 0.004 %ID/g
- tissue uptake at 2 h [3, 8]: 0.006 ± 0.001 %ID/g
- tissue uptake at 2 min [3, 9]: 0.5 ± 0.04 %ID/g
- tissue uptake at 0.05 h [3, 9]: 0.042 ± 0.003 %ID/g
- tissue uptake at 1 h [3, 9]: 0.015 ± 0.005 %ID/g
- tissue uptake at 2 h [3, 9]: 0.01 ± 0.002 %ID/g
- tissue uptake at 2 min [3, 10]: 0.51 ± 0.003 %ID/g
- tissue uptake at 0.05 h [3, 10]: 0.042 ± 0.004 %ID/g
- tissue uptake at 1 h [3, 10]: 0.012 ± 0.003 %ID/g
- tissue uptake at 2 h [3, 10]: 0.006 ± 0.0008 %ID/g
- Blood uptake ([4]; 2 min): 5.06 ± 0.32 % dose/organ
- Brain uptake ([4]; 2 min): 0.76 ± 0.05 % dose/organ
- Heart uptake ([4]; 2 min): 0.77 ± 0.08 % dose/organ
- Kidney uptake ([4]; 2 min): 3.67 ± 0.22 % dose/organ
- Liver uptake ([4]; 2 min): 25.72 ± 3.29 % dose/organ
- Lung uptake ([4]; 2 min): 1.87 ± 0.08 % dose/organ
- Muscle uptake ([4]; 2 min): 14.98 ± 1.16 % dose/organ
- Skin uptake ([4]; 2 min): 10.16 ± 3.32 % dose/organ
- Spleen uptake ([4]; 2 min): 0.68 ± 0.12 % dose/organ
- Thyroid uptake ([4]; 2 min): 0.07 ± 0.02 % dose/organ
- Blood uptake ([4]; 30 min): 2.27 ± 0.24 % dose/organ
- Brain uptake ([4]; 30 min): 0.07 ± 0.004 % dose/organ
- Heart uptake ([4]; 30 min): 0.11 ± 0.008 % dose/organ
- Kidney uptake ([4]; 30 min): 1.18 ± 0.11 % dose/organ
- Liver uptake ([4]; 30 min): 8.04 ± 0.63 % dose/organ
- Lung uptake ([4]; 30 min): 0.31 ± 0.004 % dose/organ
- Muscle uptake ([4]; 30 min): 10.13 ± 4.90 % dose/organ
- Skin uptake ([4]; 30 min): 13.71 ± 0.52 % dose/organ
- Spleen uptake ([4]; 30 min): 0.09 ± 0.01 % dose/organ
- Thyroid uptake ([4]; 30 min): 0.06 ± 0.02 % dose/organ
- Blood uptake ([4]; 60 min): 1.21 ± 0.08 % dose/organ
- Brain uptake ([4]; 60 min): 0.02 ± 0.006 % dose/organ
- Heart uptake ([4]; 60 min): 0.05 ± 0.005 % dose/organ
- Kidney uptake ([4]; 60 min): 0.54 ± 0.007 % dose/organ
- Liver uptake ([4]; 60 min): 4.58 ± 0.30 % dose/organ
- Lung uptake ([4]; 60 min): 0.13 ± 0.02 % dose/organ
- Muscle uptake ([4]; 60 min): 4.75 ± 1.76 % dose/organ
- Skin uptake ([4]; 60 min): 5.85 ± 1.99 % dose/organ
- Spleen uptake ([4]; 60 min): 0.04 ± 0.006 % dose/organ
- Thyroid uptake ([4]; 60 min): 0.05 ± 0.02 % dose/organ
- Blood uptake ([4]; 120 min): 1.08 ± 0.13 % dose/organ
- Brain uptake ([4]; 120 min): 0.016 ± 0.0005 % dose/organ
- Heart uptake ([4]; 120 min): 0.03 ± 0.003 % dose/organ
- Kidney uptake ([4]; 120 min): 0.36 ± 0.008 % dose/organ
- Liver uptake ([4]; 120 min): 4.13 ± 0.44 % dose/organ
- Lung uptake ([4]; 120 min): 0.10 ± 0.004 % dose/organ
- Muscle uptake ([4]; 120 min): 5.56 ± 3.54 % dose/organ
- Skin uptake ([4]; 120 min): 3.66 ± 0.68 % dose/organ
- Spleen uptake ([4]; 120 min): 0.029 ± 0.002 % dose/organ
- Thyroid uptake ([4]; 120 min): 0.11 ± 0.07 % dose/organ
Structure (SMILES): COc1ccccc1N1CCN(CCN(C(=O)c2cccc([123I])c2)c2ccccn2)CC1 [[^123 I] 1b]

Structure (SMILES): O=C(c1ccc(F)cc1)C1CCN(CCn2c(=O)[nH]c3ccccc3c2=O)CC1 [hetanserin]
- Ki [2]: 1970 ± 98 nM

Structure (SMILES): O=C(CCCN1CCC2(CC1)C(=O)NCN2c1ccccc1)c1ccc(F)cc1 [spiperone]
- Ki [2, 5]: 12.2 ± 2.2 nM
